Results published in US8741836B2, “Polypeptides” (Novo Nordisk A/S, priority 2011, dated 2014).
Starred links: 1 amine or outer side, 2 acyl side, 3 side chain; linkers in the order of their positions; H or OH if unused. Positions of bridges follow the written chain, without caps; N, C: chain ends. Residues, ends and D or L forms follow the SMILES beside them. *: point of attachment. C20 diacid = O=C(O)CCCCCCCCCCCCCCCCCCC(=O)*; γGlu = O=C(O)[C@H](CCC(=O)[*:2])N[*:1]

System: ad libitum fed rat
Experiment: Assay (I) efficacy testing on appetite (food intake) using an ad libitum fed rat model
Format: in vivo, Sprague Dawley (SD) rats
Excerpt: In the following examples reference is made to the following Assays: • Assay (I)—Experimental protocol for efficacy testing on appetite using an ad libitum fed rat model • ASSAY (II)a—Functional assay—Human calcitonin and amylin receptor assay • ASSAY (II)b—Functional assay—Rat calcitonin and rat amylin receptor assays • ASSAY (III)—ThT fibrillation assays for the assessment of physical stability of protein formulations • ASSAY (IV)—Determination of solubility • ASSAY (V)—Determination of binding to the human amylin receptor • ASSAY (VI)—Determination of the binding to the rat amylin receptor • ASSAY (VII)—Determination of binding to the human calcitonin receptor • ASSAY (VIII)—Determination of binding to the rat calcitonin receptor • ASSAY (IX)—pK—Determination of T½ in mini-pig • ASSAY (X)—pK—Determination of T½ in rat Assay (I)—Experimental protocol for Efficacy Testing on Appetite Using an Ad Libitum Fed Rat Model
Sprague Dawley (SD) rats from Taconic Europe, Denmark are used for the experiments. The rats have a body weight 200-250 g at the start of experiment. The rats arrive at least 10-14 days before start of experiment to allow acclimatization to experimental settings. During this period the animals are handled at least 2 times. After arrival rats are housed individually for one week in a reversed light/dark phase (meaning that lights are off during daytime and on during nighttime) […]. Since rats are normally active and eat their major part of their daily food intake during the dark period, rats are dosed in the morning right before lights are turned off. This set-up results in the lowest data variation and highest test sensitivity. The experiment is conducted in the rats' home cages and rats have free access to food and water throughout the acclimatization period and the experiment period. Each dose of derivative is tested in a group of 5-8 rats. A vehicle group of 6-8 rats is included in each set of testing. Rats are dosed once according to body weight with a 0.01-3 mg/kg solution administered intraperitoneally (ip), orally (po) or subcutaneously (sc). The time of dosing is recorded for each group. After dosing, the rats are returned to their home cages, where they then have access to food and water. The food consumption is recorded individually continuously by on-line registration or manually every hour for 7 hours, and then after 24 h and sometimes 48 h. At the end of the experimental session, the animals are euthanised.
The individual data are recorded in Microsoft excel sheets. Outliers are excluded after applying the Grubbs statistical evaluation test for outliers, and the result is presented graphically using the GraphPad Prism program.

| Structure (SMILES) | Food intake reduction 0-24 h 3 nmol/kg (%) | Food intake reduction 24-48 h 3 nmol/kg (%) | Food intake reduction 0-24 h 30 nmol/kg (%) | Food intake reduction 24-48 h 30 nmol/kg (%) |
| --- | --- | --- | --- | --- |
| CC[C@H](C)[C@H](NC(=O)[C@@H]1CCCN1C(=O)CNC(=O)[C@H](Cc1ccccc1)NC(=O)[C@H](CC(N)=O)NC(=O)[C@H](CC(N)=O)NC(=O)[C@H](CO)NC(=O)[C@H](CO)NC(=O)[C@H](CCCNC(=N)N)NC(=O)[C@H](Cc1c[nH]cn1)NC(=O)[C@H](CC(C)C)NC(=O)[C@H](Cc1ccccc1)NC(=O)[C@H](CCC(=O)O)NC(=O)[C@H](C)NC(=O)[C@H](CC(C)C)NC(=O)[C@H](CCCNC(=N)N)NC(=O)[C@H](CCC(N)=O)NC(=O)[C@@H](NC(=O)[C@H](C)NC(=O)[C@@H]1CSSC[C@H](NC(=O)[C@H](Cc2c[nH]cn2)NC(=O)CC[C@H](NC(=O)CCCCCCCCCCCCCCCCCCC(=O)O)C(=O)O)C(=O)N[C@@H](CC(N)=O)C(=O)N[C@@H]([C@@H](C)O)C(=O)N[C@@H](C)C(=O)N[C@@H]([C@@H](C)O)C(=O)N1)[C@@H](C)O)C(=O)N[C@@H](CC(C)C)C(=O)N1CCC[C@H]1C(=O)N1CCC[C@H]1C(=O)N[C@H](C(=O)N[C@@H](CC(N)=O)C(=O)N[C@H](C(=O)NCC(=O)N[C@@H](CO)C(=O)N[C@@H](CC(N)=O)C(=O)N[C@H](C(=O)N[C@@H](Cc1ccc(O)cc1)C(N)=O)[C@@H](C)O)C(C)C)[C@@H](C)O [Example 1, N-alpha-[(S)-4-Carboxy-4-(19-carboxynonadecanoylamino)butyryl]-[His1,Glu14,His17,Arg18]-pramlintide] ({C20 diacid-γGlu}-HCNTATCATQRLAEFLHRSSNNFGPILPPTNVGSNTY-NH2; disulfide 2-7 (inferred); C-terminus assumed) | 50% | 45% | 93% | 92% |
| CC[C@H](C)[C@H](NC(=O)[C@@H]1CCCN1C(=O)CNC(=O)[C@H](Cc1ccccc1)NC(=O)[C@H](CC(N)=O)NC(=O)[C@H](CC(N)=O)NC(=O)[C@H](CO)NC(=O)[C@H](CO)NC(=O)[C@H](CCCNC(=N)N)NC(=O)[C@H](Cc1c[nH]cn1)NC(=O)[C@H](CC(C)C)NC(=O)[C@H](Cc1ccccc1)NC(=O)[C@H](CCC(=O)O)NC(=O)[C@H](C)NC(=O)[C@H](CC(C)C)NC(=O)[C@H](CCCNC(=N)N)NC(=O)[C@H](CCC(N)=O)NC(=O)[C@@H](NC(=O)[C@H](C)NC(=O)[C@@H]1CSSC[C@H](NC(=O)CC[C@H](NC(=O)CCCCCCCCCCCCCCCCCCC(=O)O)C(=O)O)C(=O)NCC(=O)N[C@@H]([C@@H](C)O)C(=O)N[C@@H](C)C(=O)N[C@@H]([C@@H](C)O)C(=O)N1)[C@@H](C)O)C(=O)N[C@@H](CC(C)C)C(=O)N1CCC[C@H]1C(=O)N1CCC[C@H]1C(=O)N[C@H](C(=O)N[C@@H](CCC(=O)O)C(=O)N[C@H](C(=O)NCC(=O)N[C@@H](CO)C(=O)NCC(=O)N[C@H](C(=O)N[C@@H](Cc1ccc(O)cc1)C(N)=O)[C@@H](C)O)C(C)C)[C@@H](C)O [Example 3, N-alpha-[(S)-4-Carboxy-4-(19-carboxynonadecanoylamino)butyryl]-[des1,Gly3,Glu14,His17,Arg18,Glu31,Gly35]-pramlintide] ({C20 diacid-γGlu}-CGTATCATQRLAEFLHRSSNNFGPILPPTEVGSGTY-NH2; disulfide 1-6) | 37% | 32% |  |  |
| CC[C@H](C)[C@H](NC(=O)[C@H](CCC(=O)O)NC(=O)CNC(=O)[C@H](Cc1ccccc1)NC(=O)[C@H](CC(N)=O)NC(=O)[C@H](CC(N)=O)NC(=O)[C@H](CO)NC(=O)[C@H](CO)NC(=O)[C@H](CCCNC(=N)N)NC(=O)[C@H](Cc1c[nH]cn1)NC(=O)[C@H](CC(C)C)NC(=O)[C@H](Cc1ccccc1)NC(=O)[C@H](CCC(=O)O)NC(=O)[C@H](C)NC(=O)[C@H](CC(C)C)NC(=O)[C@H](CCCNC(=N)N)NC(=O)[C@H](CCC(N)=O)NC(=O)[C@@H](NC(=O)[C@H](C)NC(=O)[C@@H]1CSSC[C@H](NC(=O)[C@H](Cc2c[nH]cn2)NC(=O)CC[C@H](NC(=O)CCCCCCCCCCCCCCCCCCC(=O)O)C(=O)O)C(=O)N[C@@H](CC(N)=O)C(=O)N[C@@H]([C@@H](C)O)C(=O)N[C@@H](C)C(=O)N[C@@H]([C@@H](C)O)C(=O)N1)[C@@H](C)O)C(=O)N[C@@H](CC(C)C)C(=O)N[C@@H](CO)C(=O)N[C@@H](CCCNC(=N)N)C(=O)N[C@H](C(=O)N[C@@H](CC(N)=O)C(=O)N[C@H](C(=O)NCC(=O)N[C@@H](CO)C(=O)N[C@@H](CC(N)=O)C(=O)N[C@H](C(=O)N[C@@H](Cc1ccc(O)cc1)C(N)=O)[C@@H](C)O)C(C)C)[C@@H](C)O [Example 7, N-alpha-[(S)-4-Carboxy-4-(19-carboxynonadecanoylamino)butyryl]-[His1,Glu14,His17,Arg18,Glu25,Ser28,Arg29]-pramlintide] ({C20 diacid-γGlu}-HCNTATCATQRLAEFLHRSSNNFGEILSRTNVGSNTY-NH2; disulfide 2-7 (inferred)) | 53% | 46% |  |  |
| CC[C@H](C)[C@H](NC(=O)[C@@H]1CCCN1C(=O)CNC(=O)[C@H](Cc1ccccc1)NC(=O)[C@H](CC(N)=O)NC(=O)[C@H](CC(N)=O)NC(=O)[C@H](CO)NC(=O)[C@H](CO)NC(=O)[C@H](CCCNC(=N)N)NC(=O)[C@H](Cc1c[nH]cn1)NC(=O)[C@H](CC(C)C)NC(=O)[C@H](Cc1ccccc1)NC(=O)[C@H](CCC(=O)O)NC(=O)[C@H](C)NC(=O)[C@H](CC(C)C)NC(=O)[C@H](CCCNC(=N)N)NC(=O)[C@H](CCC(N)=O)NC(=O)[C@@H](NC(=O)[C@H](C)NC(=O)[C@@H]1CSSC[C@H](NC(=O)[C@H](CCC(=O)O)NC(=O)CC[C@H](NC(=O)CCCCCCCCCCCCCCCCCCC(=O)O)C(=O)O)C(=O)N[C@@H](CC(N)=O)C(=O)N[C@@H]([C@@H](C)O)C(=O)N[C@@H](C)C(=O)N[C@@H]([C@@H](C)O)C(=O)N1)[C@@H](C)O)C(=O)N[C@@H](CC(C)C)C(=O)N1CCC[C@H]1C(=O)N1CCC[C@H]1C(=O)N[C@H](C(=O)N[C@@H](CC(N)=O)C(=O)N[C@H](C(=O)NCC(=O)N[C@@H](CO)C(=O)N[C@@H](CC(N)=O)C(=O)N[C@H](C(=O)N1CCC[C@H]1C(N)=O)[C@@H](C)O)C(C)C)[C@@H](C)O [Example 10, N-alpha-[(S)-4-Carboxy-4-(19-carboxynonadecanoylamino)butyryl]-[Glu1,Glu14,His17,Arg18,Pro37]-pramlintide] ({C20 diacid-γGlu}-ECNTATCATQRLAEFLHRSSNNFGPILPPTNVGSNTP-NH2; disulfide 2-7 (inferred)) | 50% | 40% |  |  |
| CC[C@H](C)[C@H](NC(=O)[C@@H]1CCCN1C(=O)CNC(=O)[C@H](Cc1ccccc1)NC(=O)[C@H](CC(N)=O)NC(=O)[C@H](CC(N)=O)NC(=O)[C@H](CO)NC(=O)[C@H](CO)NC(=O)[C@H](Cc1c[nH]cn1)NC(=O)[C@H](Cc1c[nH]cn1)NC(=O)[C@H](CC(C)C)NC(=O)[C@H](Cc1ccccc1)NC(=O)[C@H](CCC(=O)O)NC(=O)[C@H](C)NC(=O)[C@H](CC(C)C)NC(=O)[C@H](CCCNC(=N)N)NC(=O)[C@H](CCC(N)=O)NC(=O)[C@@H](NC(=O)[C@H](C)NC(=O)[C@@H]1CSSC[C@H](NC(=O)[C@H](Cc2c[nH]cn2)NC(=O)[C@H](Cc2c[nH]cn2)NC(=O)[C@H](Cc2c[nH]cn2)NC(=O)CC[C@H](NC(=O)CCCCCCCCCCCCCCCCCCC(=O)O)C(=O)O)C(=O)N[C@@H](CC(N)=O)C(=O)N[C@@H]([C@@H](C)O)C(=O)N[C@@H](C)C(=O)N[C@@H]([C@@H](C)O)C(=O)N1)[C@@H](C)O)C(=O)N[C@@H](CC(C)C)C(=O)N1CCC[C@H]1C(=O)N1CCC[C@H]1C(=O)N[C@H](C(=O)N[C@@H](CC(N)=O)C(=O)N[C@H](C(=O)NCC(=O)N[C@@H](CO)C(=O)N[C@@H](CC(N)=O)C(=O)N[C@H](C(=O)N[C@@H](Cc1ccc(O)cc1)C(N)=O)[C@@H](C)O)C(C)C)[C@@H](C)O [Example 11, N-alpha-[(S)-4-Carboxy-4-(19-carboxynonadecanoylamino)butyryl]-His-His-[His1,Glu14,His17]-pramlintide] ({C20 diacid-γGlu}-HHHCNTATCATQRLAEFLHHSSNNFGPILPPTNVGSNTY-NH2; disulfide 4-9 (inferred); C-terminus assumed) |  |  | 87% | 92% |
